# Non-standard residues stand in square brackets, D forms with d. Residues, ends and D or L forms follow the SMILES beside them. *: point of attachment. Phe(4-amidino) = N=C(N)c1ccc(C[C@H](N)C(=O)O)cc1; Arg(NO2) = N=C(NCCC[C@H](N)C(=O)O)N[N+](=O)[O-]; Abu(4-CN) = N#CCC[C@H](N)C(=O)O; Cha = N[C@@H](CC1CCCCC1)C(=O)O; Ala(CN) = N#CC[C@H](N)C(=O)O; Chg = N[C@H](C(=O)O)C1CCCCC1; Alloc = C=CCOC(=O)*; Bn = c1ccc(C*)cc1; Acm = CC(=O)NC*
# Molecular target: T1, human factor VIIa and TF (Homo sapiens, UniProt P08709)
# T1 construct: human factor VIIa and TF
# Assay: Determination of Ki for FVIIa inhibition (chromogenic assay, substrate S-2288)
# Assay type: biochemical
# Details: human factor VIIa 5 nM and TF 10 nM, S-2288 500 μM, 25° C., 15 minute preincubation, pH 8.15; read-out: Factor VIIa inhibitory activities Ki
# Protocol: The inhibitory activity (Ki) of each compound towards […] activity was determined using a chromogenic assay essentially as described previously. J. A. Ostrem, F. Al-Obeidi, P. Safar, A. Safarova, S. K. Stringer, M. Patek, M. T. Cross, J. Spoonamore, J. C. LoCascio, P. Kasireddy, D. S. Thorpe, N. Sepetov, M. Lebi, P. Wildgoose, P. Strop, "Discovery of a novel, potent, and specific family of factor Xa inhibitors via combinatorial chemistry". Biochemistry 37 (1998) 1053-1059. Kinetic assays were conducted at 25° C. in half-area microtiter plates (Costar Corp., Cambridge, Mass.) using a kinetic plate reader (Molecular Devices Spectramax 250). A typical assay consisted of 25 μl of human factor VIIa and TF (5 nM and 10 nM, respective final concentration) combined with 40 μl of inhibitor dilutions in 10% DMSO/TBS-PEG buffer (50 mM Tris, 15 mM NaCl, 5 mM CaCl2; 0.05% PEG 8k, pH 8.15). Following a 15 minute preincubation period, the assay was initiated by the addition of 35 μl of the chromogenic substrate S-2288 (D-Ile-Pro-Arg-pNA, Pharmacia Hepar Inc, 500 μM final concentration.). The apparent inhibition constants were calculated from the slope of the progress curves during the linear part of the time course, typically between 1 and 5 min following addition of substrate to the assay. The true Ki was subsequently determined for each compound by correcting for substrate concentration (S) and the Km using the formula Ki=Ki app/(1+(S)/Km). I. H. Segal, Enzyme Kinetics, pp 100-125 (John Wiley & Sons, N.Y., 1975).
# T1 sequence (P08709 213-466 limits assumed): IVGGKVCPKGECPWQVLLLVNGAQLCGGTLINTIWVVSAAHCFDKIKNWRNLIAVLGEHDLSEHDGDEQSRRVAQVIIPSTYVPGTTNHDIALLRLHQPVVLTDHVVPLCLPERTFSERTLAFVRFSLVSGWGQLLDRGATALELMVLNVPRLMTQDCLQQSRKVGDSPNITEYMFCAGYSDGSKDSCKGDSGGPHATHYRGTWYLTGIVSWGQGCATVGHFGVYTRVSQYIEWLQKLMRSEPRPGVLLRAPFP
# T1 sequence (P08709 61-212 limits assumed): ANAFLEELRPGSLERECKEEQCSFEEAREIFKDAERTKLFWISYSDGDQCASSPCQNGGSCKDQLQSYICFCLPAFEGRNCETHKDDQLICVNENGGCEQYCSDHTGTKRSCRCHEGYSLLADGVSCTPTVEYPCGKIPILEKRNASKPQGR
# T1 sequence (P13726 33-295 partner): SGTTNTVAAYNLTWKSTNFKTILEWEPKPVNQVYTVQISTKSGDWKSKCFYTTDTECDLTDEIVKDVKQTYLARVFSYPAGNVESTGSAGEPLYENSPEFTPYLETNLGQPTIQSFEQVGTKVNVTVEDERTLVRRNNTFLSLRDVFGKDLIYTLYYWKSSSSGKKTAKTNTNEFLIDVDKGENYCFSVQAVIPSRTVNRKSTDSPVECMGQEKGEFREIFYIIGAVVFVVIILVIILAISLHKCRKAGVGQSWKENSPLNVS
row,Ki [nM],SMILES
1,63,C=CCOC(=O)N[C@@H](Cc1ccc(C(=N)N)cc1)C(=O)N[C@@H](CCC(=O)O)C(=O)N[C@@H](CCC#N)C(=O)N[C@@H](CC1CCCCC1)C(N)=O [Alloc--pAph--Glu-2-Abu(4-CN)--Cha--NH2] (Alloc-[Phe(4-amidino)]E[Abu(4-CN)][Cha]-NH2)
2,120,C=CCOC(=O)N[C@@H](Cc1ccc(C(=N)N)cc1)C(=O)N[C@@H](CCC(=O)O)C(=O)N[C@@H](CC#N)C(=O)N[C@@H](CC1CCCCC1)C(N)=O [Alloc--pAph--Glu--Ala(3-CN)--Cha--NH2] (Alloc-[Phe(4-amidino)]E[Ala(CN)][Cha]-NH2)
3,14,C=CCOC(=O)N[C@@H](Cc1ccc(C(=N)N)cc1)C(=O)N[C@@H](CCC(=O)O)C(=O)N[C@@H](CCCNC(=N)N[N+](=O)[O-])C(=O)N[C@@H](CC1CCCCC1)C(N)=O [Alloc--pAph--Glu--Arg(NO2)--Cha--NH2] (Alloc-[Phe(4-amidino)]E[Arg(NO2)][Cha]-NH2)
4,46,"C=CCOC(=O)N[C@@H](Cc1ccc(C(=N)N)cc1)C(=O)N[C@@H](CCC(=O)O)C(=O)N[C@@H](CCCNC(=N)N)C(=O)N[C@@H](CC1CCCCC1)C(N)=O [Alloc--pAph--Glu--Arg--Cha--NH2, Alloc-pAph-Glu-Arg-Cha-NH2] (Alloc-[Phe(4-amidino)]ER[Cha]-NH2)"
5,238,"C=CCOC(=O)N[C@@H](Cc1ccc(C(=N)N)cc1)C(=O)N[C@@H](CCC(=O)O)C(=O)N[C@@H](CCCNC(=N)N)C(=O)N[C@H](C(N)=O)C1CCCCC1 [Alloc--pAph--Glu--Arg--Chg--NH2, Alloc-pAph-Glu-Arg-Chg-NH2] (Alloc-[Phe(4-amidino)]ER[Chg]-NH2)"
6,45,"C=CCOC(=O)N[C@@H](Cc1ccc(C(=N)N)cc1)C(=O)N[C@@H](CCC(=O)O)C(=O)N[C@@H](CC(N)=O)C(=O)NC1CCCc2ccccc21 (stereo partly drawn) [Alloc--pAph--Glu--Asn-1,2,3,4-tetrahydro-1-naphthylamide]"
7,21,C=CCOC(=O)N[C@@H](Cc1ccc(C(=N)N)cc1)C(=O)N[C@@H](CCC(=O)O)C(=O)N[C@@H](CC(N)=O)C(=O)NC(C)c1cccc2ccccc12 (stereo partly drawn) [Alloc--pAph--Glu--Asn-1-(1-naphthyl)ethylamide]
8,31,C=CCOC(=O)N[C@@H](Cc1ccc(C(=N)N)cc1)C(=O)N[C@@H](CCC(=O)O)C(=O)N[C@@H](CC(N)=O)C(=O)NCc1cccc2ccccc12 [Alloc--pAph--Glu--Asn-1-naphthylmethylamide]
9,49,"C=CCOC(=O)N[C@@H](Cc1ccc(C(=N)N)cc1)C(=O)N[C@@H](CCC(=O)O)C(=O)N[C@@H](CC(N)=O)C(=O)NCC(c1ccccc1)c1ccccc1 [Alloc--pAph--Glu--Asn-2,2-diphenylethylamide]"
10,51,"C=CCOC(=O)N[C@@H](Cc1ccc(C(=N)N)cc1)C(=O)N[C@@H](CCC(=O)O)C(=O)N[C@@H](CC(N)=O)C(=O)NCc1ccc(F)cc1F [Alloc--pAph--Glu--Asn-2,4-difluorobenzylamide]"
11,22,C=CCOC(=O)N[C@@H](Cc1ccc(C(=N)N)cc1)C(=O)N[C@@H](CCC(=O)O)C(=O)N[C@@H](CC(N)=O)C(=O)NCCc1cccc2ccccc12 [Alloc--pAph--Glu--Asn-2-(1-naphthyl)ethylamide]
12,52,C=CCOC(=O)N[C@@H](Cc1ccc(C(=N)N)cc1)C(=O)N[C@@H](CCC(=O)O)C(=O)N[C@@H](CC(N)=O)C(=O)NCCc1ccc2ccccc2c1 [Alloc--pAph--Glu--Asn-2-(2-naphthyl)ethylamide]
13,71,C=CCOC(=O)N[C@@H](Cc1ccc(C(=N)N)cc1)C(=O)N[C@@H](CCC(=O)O)C(=O)N[C@@H](CC(N)=O)C(=O)NCCc1ccccn1 [Alloc--pAph--Glu--Asn-2-(2-pyridyl)ethylamide]
14,23,C=CCOC(=O)N[C@@H](Cc1ccc(C(=N)N)cc1)C(=O)N[C@@H](CCC(=O)O)C(=O)N[C@@H](CC(N)=O)C(=O)NCCc1cccc(Cl)c1 [Alloc--pAph--Glu--Asn-2-(3-chlorophenyl)ethylamide]
15,410,C=CCOC(=O)N[C@@H](Cc1ccc(C(=N)N)cc1)C(=O)N[C@@H](CCC(=O)O)C(=O)N[C@@H](CC(N)=O)C(=O)NCCN1CCOCC1 [Alloc--pAph--Glu--Asn-2-(4-morpholinyl)ethylamide]
16,350,C=CCOC(=O)N[C@@H](Cc1ccc(C(=N)N)cc1)C(=O)N[C@@H](CCC(=O)O)C(=O)N[C@@H](CC(N)=O)C(=O)NCCc1ccc(S(N)(=O)=O)cc1 [Alloc--pAph--Glu--Asn-2-(4-sulfamoylphenyl)ethylamide]
17,27,C=CCOC(=O)N[C@@H](Cc1ccc(C(=N)N)cc1)C(=O)N[C@@H](CCC(=O)O)C(=O)N[C@@H](CC(N)=O)C(=O)NCc1ccc2ccccc2c1 [Alloc--pAph--Glu--Asn-2-naphthylmethylamide]

row,Ki [nM],SMILES
1,170,C=CCOC(=O)N[C@@H](Cc1ccc(C(=N)N)cc1)C(=O)N[C@@H](CCC(=O)O)C(=O)N[C@@H](CC(N)=O)C(=O)NCC1CCCO1 (stereo partly drawn) [Alloc--pAph--Glu--Asn-2-tetrahydrofuranylmethylamide]
2,24,"C=CCOC(=O)N[C@@H](Cc1ccc(C(=N)N)cc1)C(=O)N[C@@H](CCC(=O)O)C(=O)N[C@@H](CC(N)=O)C(=O)NCCC(c1ccccc1)c1ccccc1 [Alloc--pAph--Glu--Asn-3,3-diphenylpropylamide]"
3,26,"C=CCOC(=O)N[C@@H](Cc1ccc(C(=N)N)cc1)C(=O)N[C@@H](CCC(=O)O)C(=O)N[C@@H](CC(N)=O)C(=O)NCc1ccc(Cl)c(Cl)c1 [Alloc--pAph--Glu--Asn-3,4-dichlorobenzylamide]"
4,120,"C=CCOC(=O)N[C@@H](Cc1ccc(C(=N)N)cc1)C(=O)N[C@@H](CCC(=O)O)C(=O)N[C@@H](CC(N)=O)C(=O)NCc1ccc2c(c1)OCO2 [Alloc--pAph--Glu--Asn-3,4-methylenedioxybenzylamide]"
5,33,"C=CCOC(=O)N[C@@H](Cc1ccc(C(=N)N)cc1)C(=O)N[C@@H](CCC(=O)O)C(=O)N[C@@H](CC(N)=O)C(=O)NCc1cc(C(F)(F)F)cc(C(F)(F)F)c1 [Alloc--pAph--Glu--Asn-3,5-bistrifluoromethylbenzylamide]"
6,110,C=CCOC(=O)N[C@@H](Cc1ccc(C(=N)N)cc1)C(=O)N[C@@H](CCC(=O)O)C(=O)N[C@@H](CC(N)=O)C(=O)NCCC(C)C [Alloc--pAph--Glu--Asn-3-methylbutylamide]
7,26,C=CCOC(=O)N[C@@H](Cc1ccc(C(=N)N)cc1)C(=O)N[C@@H](CCC(=O)O)C(=O)N[C@@H](CC(N)=O)C(=O)NCCCc1ccccc1 [Alloc--pAph--Glu--Asn-3-phenylpropylamide]
8,110,C=CCOC(=O)N[C@@H](Cc1ccc(C(=N)N)cc1)C(=O)N[C@@H](CCC(=O)O)C(=O)N[C@@H](CC(N)=O)C(=O)NCc1ccc(N(C)C)cc1 [Alloc--pAph--Glu--Asn-4-dimethylaminobenzylamide]
9,83,C=CCOC(=O)N[C@@H](Cc1ccc(C(=N)N)cc1)C(=O)N[C@@H](CCC(=O)O)C(=O)N[C@@H](CC(N)=O)C(=O)NCc1ccc(OC)cc1 [Alloc--pAph--Glu--Asn-4-methoxybenzylamide]
10,23,C=CCOC(=O)N[C@@H](Cc1ccc(C(=N)N)cc1)C(=O)N[C@@H](CCC(=O)O)C(=O)N[C@@H](CC(N)=O)C(=O)NC1c2ccccc2-c2ccccc21 [Alloc--pAph--Glu--Asn-9-fluorenylamide]
11,21,"C=CCOC(=O)N[C@@H](Cc1ccc(C(=N)N)cc1)C(=O)N[C@@H](CCC(=O)O)C(=O)N[C@@H](CC(N)=O)C(=O)N[C@@H](CC1CCCCC1)C(N)=O [Alloc--pAph--Glu--Asn--Cha--NH2, Alloc-pAph-Glu-Asn-Cha-NH2] (Alloc-[Phe(4-amidino)]EN[Cha]-NH2)"
12,150,"C=CCOC(=O)N[C@@H](Cc1ccc(C(=N)N)cc1)C(=O)N[C@@H](CCC(=O)O)C(=O)N[C@@H](CC(N)=O)C(=O)NCC1CCCCC1 [Alloc--pAph--Glu--Asn--NH--CH2 --Chx, Alloc-pAph-Glu-Asn-NH--CH2 -Chx]"
13,410,"C=CCOC(=O)N[C@@H](Cc1ccc(C(=N)N)cc1)C(=O)N[C@@H](CCC(=O)O)C(=O)N[C@@H](CC(N)=O)C(=O)N(Cc1ccccc1)Cc1ccccc1 [Alloc--pAph--Glu--Asn-N,N-dibenzylamide]"
14,1700,C=CCOC(=O)N[C@@H](Cc1ccc(C(=N)N)cc1)C(=O)N[C@@H](CCC(=O)O)C(=O)N[C@@H](CC(N)=O)C(=O)N(C)Cc1cccc2ccccc12 [Alloc--pAph--Glu--Asn-N-methyl-N-(1-naphthylmethyl)amide]
15,120,C=CCOC(=O)N[C@@H](Cc1ccc(C(=N)N)cc1)C(=O)N[C@@H](CCC(=O)O)C(=O)N[C@@H](CSCNC(C)=O)C(=O)N[C@@H](CC1CCCCC1)C(N)=O [Alloc--pAph--Glu--Cys(Acm)--Cha--NH2] (Alloc-[Phe(4-amidino)]EC(Acm)[Cha]-NH2)
16,26,C=CCOC(=O)N[C@@H](Cc1ccc(C(=N)N)cc1)C(=O)N[C@@H](CCC(=O)O)C(=O)N[C@@H](CSCc1ccccc1)C(=O)N[C@@H](CC1CCCCC1)C(N)=O [Alloc--pAph--Glu--Cys(Bzl)--Cha--NH2] (Alloc-[Phe(4-amidino)]EC(Bn)[Cha]-NH2)
